From the supplement of paper PMC10307832

Key:
Assay in all cases: relative viability (nuclei count vs DMSO), 5 days (fraction); higher = more cells survive
ABC-1 = test system: ABC-1
Procedure, shortened: (§1)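 Lung cancer cell lines in 1536-well plates were dosed by pin tool the day after seeding, either with one drug alone or with a fixed anchor-drug dose plus five library-drug doses (not always all listed) in √10 steps. After 5 days, cells were fixed and their nuclei stained in one step (final 0.05% Triton X-100, 1% formaldehyde, 1 ug/ml Hoechst), then counted on 4× images. Relative viability is the nuclei count in treated wells divided by that in vehicle wells. Values are medians of duplicate plates.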

CAL-12T = test system: CAL-12T
Procedure, shortened: as §1

EPLC-272H = test system: EPLC-272H
Procedure, shortened: as §1

HCC-366 = test system: HCC-366
Procedure, shortened: as §1

HCC-78 = test system: HCC-78
Procedure, shortened: as §1

LC-2-ad = test system: LC-2-ad
Procedure, shortened: as §1

LOU-NH91 = test system: LOU-NH91
Procedure, shortened: as §1

LU99A = test system: LU99A
Procedure, shortened: as §1

NCI-H1395 = test system: NCI-H1395
Procedure, shortened: as §1

NCI-H1651 = test system: NCI-H1651
Procedure, shortened: as §1

NCI-H1734 = test system: NCI-H1734
Procedure, shortened: as §1

NCI-H1755 = test system: NCI-H1755
Procedure, shortened: as §1

NCI-H1793 = test system: NCI-H1793
Procedure, shortened: as §1

NCI-H1944 = test system: NCI-H1944
Procedure, shortened: as §1

NCI-H2087 = test system: NCI-H2087
Procedure, shortened: as §1

NCI-H2170 = test system: NCI-H2170
Procedure, shortened: as §1

NCI-H2228 = test system: NCI-H2228
Procedure, shortened: as §1

NCI-H2405 = test system: NCI-H2405
Procedure, shortened: as §1

NCI-H3122 = test system: NCI-H3122
Procedure, shortened: as §1

NCI-H460 = test system: NCI-H460
Procedure, shortened: as §1

PC-3 [JPC-3] = test system: PC-3 [JPC-3]
Procedure, shortened: as §1

RERF-LC-KJ = test system: RERF-LC-KJ
Procedure, shortened: as §1

UMC-11 = test system: UMC-11
Procedure, shortened: as §1

For `CC(C)Oc1cc(Nc2nc(N[C@@H](C)c3ccc(F)cn3)ncc2Cl)n[nH]1` [AZ23] + Cc1nc(NC(=O)N2CCC[C@H]2C(N)=O)sc1-c1ccnc(C(C)(C)C(F)(F)F)c1 [Alpelisib] (partner 2 µM), the relative viability (ABC-1; first compound 0.01 µM) was 0.717, the relative viability (ABC-1; first compound 0.03162 µM) was 1.23 and the relative viability (ABC-1; first compound 0.3162 µM) was 1.14. The relative viability (CAL-12T; first compound 0.01 µM) was 0.787, the relative viability (CAL-12T; first compound 0.03162 µM) was 1.26 and the relative viability (CAL-12T; first compound 0.3162 µM) was 1.28. It also gave a relative viability (EPLC-272H; first compound 0.01 µM) of 0.873, a relative viability (EPLC-272H; first compound 0.03162 µM) of 1.18 and a relative viability (HCC-366; first compound 0.01 µM) of 0.391. It also gave a relative viability (HCC-366; first compound 0.03162 µM) of 0.517, a relative viability (HCC-366; first compound 0.3162 µM) of 0.334 and a relative viability (HCC-78; first compound 0.01 µM) of 0.348. It also gave a relative viability (HCC-78; first compound 0.03162 µM) of 0.286, a relative viability (HCC-78; first compound 0.3162 µM) of 0.306 and a relative viability (LC-2-ad; first compound 0.01 µM) of 1.01. It also gave a relative viability (LC-2-ad; first compound 0.03162 µM) of 0.895, a relative viability (LC-2-ad; first compound 0.3162 µM) of 0.892 and a relative viability (LOU-NH91; first compound 0.01 µM) of 0.676. The relative viability (LOU-NH91; first compound 0.03162 µM) was 0.775, the relative viability (LOU-NH91; first compound 0.3162 µM) was 0.699 and the relative viability (LU99A; first compound 0.01 µM) was 0.49. It also gave a relative viability (LU99A; first compound 0.03162 µM) of 0.651, a relative viability (LU99A; first compound 0.3162 µM) of 0.555 and a relative viability (NCI-H1395; first compound 0.03162 µM) of 1.06. The relative viability (NCI-H1395; first compound 0.3162 µM) was 1.08, the relative viability (NCI-H1651; first compound 0.01 µM) was 0.773 and the relative viability (NCI-H1651; first compound 0.03162 µM) was 1.05. The relative viability (NCI-H1651; first compound 0.3162 µM) was 1.16, the relative viability (NCI-H1734; first compound 0.01 µM) was 0.683 and the relative viability (NCI-H1734; first compound 0.03162 µM) was 0.772. For the same molecule, the relative viability (NCI-H1734; first compound 0.3162 µM) was 0.649, the relative viability (NCI-H1755; first compound 0.01 µM) was 1.12 and the relative viability (NCI-H1755; first compound 0.03162 µM) was 1.05. For the same molecule, the relative viability (NCI-H1755; first compound 0.3162 µM) was 1.09, the relative viability (NCI-H1793; first compound 0.01 µM) was 0.83 and the relative viability (NCI-H1793; first compound 0.03162 µM) was 0.787. For the same molecule, the relative viability (NCI-H1793; first compound 0.3162 µM) was 0.643, the relative viability (NCI-H1944; first compound 0.01 µM) was 0.811 and the relative viability (NCI-H1944; first compound 0.03162 µM) was 0.868. For the same molecule, the relative viability (NCI-H1944; first compound 0.3162 µM) was 0.883, the relative viability (NCI-H2087; first compound 0.01 µM) was 1.39 and the relative viability (NCI-H2087; first compound 0.03162 µM) was 1.07. For the same molecule, the relative viability (NCI-H2087; first compound 0.3162 µM) was 1.07, the relative viability (NCI-H2170; first compound 0.01 µM) was 0.87 and the relative viability (NCI-H2170; first compound 0.03162 µM) was 0.887. For the same molecule, the relative viability (NCI-H2170; first compound 0.3162 µM) was 0.831, the relative viability (NCI-H2228; first compound 0.01 µM) was 0.88 and the relative viability (NCI-H2228; first compound 0.03162 µM) was 1.01. It also gave a relative viability (NCI-H2228; first compound 0.3162 µM) of 0.67, a relative viability (NCI-H2405; first compound 0.01 µM) of 0.708 and a relative viability (NCI-H2405; first compound 0.03162 µM) of 0.768. It also gave a relative viability (NCI-H2405; first compound 0.3162 µM) of 0.754, a relative viability (NCI-H3122; first compound 0.01 µM) of 0.811 and a relative viability (NCI-H3122; first compound 0.03162 µM) of 0.827. The relative viability (NCI-H3122; first compound 0.3162 µM) was 0.77, the relative viability (NCI-H460; first compound 0.01 µM) was 0.429 and the relative viability (NCI-H460; first compound 0.03162 µM) was 0.598. It also gave a relative viability (NCI-H460; first compound 0.3162 µM) of 0.48, a relative viability (PC-3 [JPC-3]; first compound 0.01 µM) of 1.14 and a relative viability (PC-3 [JPC-3]; first compound 0.03162 µM) of 1.06. The relative viability (PC-3 [JPC-3]; first compound 0.3162 µM) was 0.962, the relative viability (RERF-LC-KJ; first compound 0.01 µM) was 0.714 and the relative viability (RERF-LC-KJ; first compound 0.03162 µM) was 0.925. The relative viability (RERF-LC-KJ; first compound 0.3162 µM) was 0.845, the relative viability (UMC-11; first compound 0.01 µM) was 0.883 and the relative viability (UMC-11; first compound 0.03162 µM) was 1.07. For the same molecule, the relative viability (UMC-11; first compound 0.3162 µM) was 0.943.
